Experimental data reported in patent US8481522B2, “Platinum-N-heterocyclic carbene derivatives, preparation thereof and therapeutic use thereof” (Sanofi, priority 2008, dated 2013).
Where “and” joins values, the source holds several entries; their conditions need not be identical. Identical values can stand only once.

What was measured:
Assay type in all cases: cell-based
CCRF-CEM cells = assay: Cytotoxicity, non-adherent CCRF-CEM cells, CellTiter-Glo luminescent cell viability; conditions: CCRF-CEM human T leukaemia, 96 h incubation
Experimental: CCRF-CEM is a human T leukaemia (Cancer 1965, 18: 522-529). Oxaliplatin induces bifunctional lesions such as inter- and intra-DNA strand adducts on these CCRF-CEM cells (Mol Pharmacol 2000, 58: 920-927). […] This deficiency makes these cells particularly […] to alkylating agents and to platinum compounds.
For the non-adherent CCRF-CEM cells, the cell viability is measured by the luminescence test CellTiter-Glo® Luminescent Cell Viability Assay (Promega, Madison, Wis., USA). When it is added to the cells, the reagent produces a luminescence in the presence of the ATP of the living cells. The results are evaluated on a suitable reader (Envision, Perkin-Elmer Life Sciences, Boston, Mass., USA).
The CCRF-CEM cells are cultured in RPMI1640 medium containing 10% foetal calf serum, 2 mM L-glutamine, 100 units/ml of penicillin and […] of streptomycin, at 37° C. in a 95% air/5% CO2 atmosphere. The cells, at the exponential growth phase, are introduced into the wells of a 96-well plate at the density of 5×10^3 cells per well in an opaque plate (Greiner), in a volume of 150 μl. After incubating for 4 h at 37° C. in a 95% air/5% CO2 atmosphere, the compounds (concentrated 20-fold) are added in a volume of 8 μl. The compounds are prepared beforehand as a stock solution at the concentration of 10 mM in DMSO. A serial dilution is performed before the compounds are brought into contact with the cells. After incubating for 96 h at 37° C., 100 μl of agents (CellTiter-Glo) are added. After lysing the cells, the release of ATP is evaluated on the Envision reader.
(§1) The IC50 values are evaluated from curves presenting the percentage viability as a function of the concentration of the test compound, using the Biostat speed software. The IC50 is defined as the concentration of the compound which inhibits 50% of the cell proliferation or 50% of the cell viability.

H460 = assay: Cytotoxicity, adherent cells, 14C-thymidine incorporation (cell proliferation); conditions: NCI-H460 human non-small cell lung cancer, 96 h treatment
Experimental: NCI-H460 is a human non-small cell lung cancer which has a mutation in the K-ras gene. This cell is sensitive to platinum compounds. In this cell line, cisplatin forms more adducts than oxaliplatin at the same concentration and yet the percentage repair is higher for oxaliplatin (DNA Repair 2006, 5: 219-225).
(§2) Cell proliferation is evaluated by the incorporation of ^14C-thymidine into the DNA of the cells. A549, CH1, CH1/DDP and H460 are cultured in Dulbecco's modified Eagle's medium (DMEM), SK-OV-3 in Mc-Coy medium, A2780 and A2780/DDP in RPMI1640 medium. All the media contain 10% foetal calf serum, 2 mM L-glutamine, 100 units/ml of penicillin and […] of streptomycin. The incubation is performed at 37° C. in a 95% air/5% CO2 atmosphere.
(§3) The cells, at the exponential growth phase, are introduced into the wells of a Cytostar 96-well plate, containing a scintillation fluid (Cytostar-T scintillating microplate, GE Healthcare Bio-Sciences AB, Uppsala, Sweden), at the density of 5×10^3 to 10^4 cells per well, in an amount of 180 μl per well. After incubating for 4 hours, the test compounds are added. The compounds are prepared beforehand as a stock solution at the concentration of 10 mM in DMSO. A serial dilution is performed before the compounds are brought into contact with the cells in a volume of 10 μl. After incubating for 72 hours at 37° C. in an atmosphere of 95% air/5% CO2, 0.1 μCi/well of ^14C-thymidine is added. 24 h later (total 96 h of treatment), the incorporation of ^14C-thymidine is recorded on a suitable scintillation counter (MicroBeta radioactivity counting, Perkin-Elmer Life Sciences, Boston, Mass., USA). The mean values obtained in the experimental groups are divided by the mean values obtained in the control groups in order to obtain percentages relative to the controls.
as §1

A2780 = assay: as above; conditions: A2780 human ovarian cancer, 96 h treatment
Source text: (§4) A2780 and A2780/DDP are human ovarian cancer lines. […] The resistance of the A2780/DDP line is of the acquired type and involves various mechanisms: —reduction in the capacity for internalization of cisplatin, —replicative bypass (this is defined as the possibility for a replicative complex to synthesize DNA beyond the site of damage) (Cancer Res 1994; 54:3500-3505), —active detoxification by glutathione (Exp Oncol 2005; 27:191-195), —low activity of Caspase-3, enzymes involved in the process of programmed cell death (J Cancer Res Clin Oncol 2004; 130:423-428) and finally high nuclear efflux of platinum compounds (Oncol Rep 2004; 12:1365-1370).
as §2, §3, §1

A2780/DDP = assay: as above; conditions: A2780/DDP cisplatin-resistant human ovarian cancer, 96 h treatment
Source text: as §4, §2, §3, §1

SK-OV-3 = assay: as above; conditions: SK-OV-3 human ovarian cancer, 96 h treatment, read-out: SKOV3 IC50
Experimental: SK-OV-3 is a human ovarian cancer. […] This cell has an intrinsic mechanism of resistance to cisplatin which is linked to high levels of glutathione (Br J Cancer 1998; 78:175-180). This cell line is commonly used to explore the effects of high levels of glutathione on the resistance to platinum compounds (Br J Cancer 1996, 74: 380-386).
as §2, §3, §1

CH1/DDP = assay: as above; conditions: CH1/DDP cisplatin-resistant human ovarian cancer, 96 h treatment
Source text: (§5) CH1 and CH1 CisR are human ovarian cancers which are sensitive and resistant to cisplatin, respectively. The relative sensitivity of the CH1 cell may be at least partially attributed to a deficiency of a gene involved in repair processes and which is capable of removing the adducts (Chemico-Biological Interactions, 1999; 123:11-29). The CH1cisR cell is resistant to cisplatin through a poorly known mechanism of DNA repair, or increase in the tolerance of the cell to the damage caused by cisplatin to the DNA of this cell (Mol Pharmacol 2003; 63:933-944, Cancer Res 52: 3857-3864).
as §2, §3, §1

CH1 = assay: as above; conditions: CH1 human ovarian cancer, 96 h treatment
Source text: as §5, §2, §3, §1

SMILES	IC50 (CCRF-CEM cells)	IC50 (H460)	IC50 (A2780)	IC50 (A2780/DDP)	IC50 (SK-OV-3)	IC50 (CH1/DDP)	IC50 (CH1)
[I][Pt-2]([I])([NH2+]C1CCCCC1)[c]1n(Cc2ccccc2)cc[n+]1Cc1ccccc1 [Example 12, trans-diiodo(N-cyclohexylamine)[1,3-dibenzylimidazol-2-ylidene]-platinum(II)]	1300 nM	3400 nM	700 nM	1200 nM	2800 nM	–	–
Cn1c(=O)c2c(n(C)c1=O)n(C)[c](=[Pt-]([I])([I])[NH2+]C1CCCCC1)n2C [Example 9, trans-diiodo(N-cyclohexylamine)(1,3,7,9-tetramethylxanthin-8-ylidene)platinum(II)]	2700 nM	1600 nM	1800 nM	1400 nM	> 10000 nM	2100 nM	2200 nM
Cn1[c](=[Pt-]([I])([I])[NH2+]C2CC3CCC2C3)n(C)c2ccccc21 (single isomer, unassigned) [Example 17, trans-diiodo(N-exo(−)bicyclo[2.2.1]heptylamine)(1,3-dimethylbenzimidazol-2-ylidene)platinum(II)]	1800 nM	1100 nM	1100 nM	2200 nM	5000 nM	–	–
Cn1ccn(CC2CCCCC2)[c]1=[Pt-]([I])([I])[NH2+]C1CCCCC1 [Example 3, trans-diiodo(N-cyclohexylamine)(1-methyl-3-cyclohexylmethylimidazol-2-ylidene)platinum(II)]	2000 nM	3800 nM	1000 nM	1200 nM	5300 nM	2000 nM	2300 nM
N.N.[Cl][Pt][Cl] [Cisplatin, cisplatin, reference compound]	3000 nM	2400 nM	9000 nM	> 10000 nM	6100 nM	> 10000 nM	8000 nM
Cn1[c](=[Pt-]([I])([I])[NH2+]C2CC3CCC2C3)n(C)c2ccccc21 (single isomer, unassigned) [Example 16, trans-diiodo(N-exo(+)bicyclo[2.2.1]heptylamine)(1,3-di-methylbenzimidazol-2-ylidene)platinum(II)]	1400 nM	4100 nM	1100 nM	2700 nM	4100 nM	–	–
Cn1[c](=[Pt-]([I])([I])[NH2+]C2CC3CCC2C3)n(C)c2ccccc21 (racemic) [Example 7, trans-diiodo(N-exo(+/−)bicyclo[2.2.1]heptylamine)(1,3-dimethyl-benzimidazol-2-ylidene)platinum(II)]	1300 nM	1900 nM	400 nM	1800 nM	7000 nM	2400 nM	2500 nM
O=C1[O][Pt]2([NH][C@@H]3CCCC[C@H]3[NH]2)[O]C1=O [Oxaliplatin, oxaliplatin, reference compound]	900 nM	4000 nM	3900 nM	17300 nM	> 10000 nM	6200 nM	4200 nM
Cn1c(-c2ccccc2)c[n+](C)[c]1[Pt-2]([I])([I])[NH2+]C1CCCCC1 [Example 20, trans-diiodo(N-cyclohexylamine)[1,3-dimethyl-4-phenylimidazol-2-ylidene]platinum(II)]	2100 nM	4400 nM	–	–	–	–	–
COc1cccc(Cn2cc[n+](C)[c]2[Pt-2]([I])([I])[NH2+]C2CCCCC2)c1 [Example 32, trans-diiodo(N-cyclohexylamine)[3-(3-methoxybenzyl)-1-methyl-imidazol-2-ylidene]platinum(II)]	1200 nM	1400 nM	–	–	–	–	–
Cn1ccn(Cc2ccccc2)[c]1=[Pt-]([I])([I])[NH+]1CCOCC1 [Example 31, trans-diiodo(N-morpholine)(1-methyl-3-benzylimidazol-2-ylidene)-platinum(II)]	700 nM	900 nM	–	–	–	–	–
Cn1ccn(Cc2ccccc2)[c]1=[Pt-]([I])([I])[NH2+]C1CCCCC1 [Example 5, trans-diiodo(N-cyclohexylamine)(1-methyl-3-benzylimidazol-2-ylidene)platinum(II)]	1200 nM and 1400 nM	1700 nM and 2700 nM	900 nM	1800 nM	6500 nM	2400 nM	2400 nM
COc1ccc(Cn2cc[n+](C)[c]2[Pt-2]([I])([I])[NH2+]C2CCCCC2)cc1OC [Example 35, trans-diiodo(N-cyclohexylamine)[3-(3,4-dimethoxybenzyl)-1-methylimidazol-2-ylidene]platinum(II)]	1300 nM	2700 nM	–	–	–	–	–
COc1ccc(Cn2ccn(C)[c]2=[Pt]([I])([I])[NH]C2CCCCC2)cc1 [Example 10, trans-diiodo(N-cyclohexylamine)[1-methyl-3-(4-methoxybenzyl)-imidazol-2-ylidene]platinum(II)]	1600 nM	3800 nM	1600 nM	2300 nM	5200 nM	–	–
Cn1ccn(Cc2ccc(C(F)(F)F)cc2)[c]1=[Pt-]([I])([I])[NH2+]C1CCCCC1 [Example 11, trans-diiodo(N-cyclohexylamine)[1-methyl-3-(4-trifluoromethylbenzyl)imidazol-2-ylidene]platinum(II)]	1000 nM	1500 nM	800 nM	1100 nM	2600 nM	–	–
